Where a SMILES comes first, the peptide text is derived from it. [ ]: non-standard residue; d: D form. pY = N[C@@H](Cc1ccc(OP(=O)(O)O)cc1)C(=O)O
What was measured:
Type in all cases: biochemical
[1] = molecular target: T1, Protein tyrosine phosphatase from Yersinia enterocolitica (YOP) (Yersinia enterocolitica, UniProt P15273); experiment: Enzyme activity assay: PTP-catalyzed hydrolysis of substrates by YOP; conditions: pH 7.1, room temperature; for Km: read-out: Km (best fit to the Michaelis-Menten equation)
T1 construct: purchased Calbiochem
Source text: (§1) Protein tyrosine phosphatase from Yersinia enterocolitica (YOP)^16 and human T-cell PTP (TCPTP)^17 were obtained from Calbiochem in purified form and used as received. Reagents for solid phase peptide synthesis including Fmoc protected amino acids and Rink Amide resin were obtained from Novabiochem and used without further purification. Trichloroethanol (TCE), resorcinol, dicyclohexylcarbodiimide (DCC) and N,N-dimethylaminopyridine (DMAP) were obtained from Lancaster, isopropenyl chloroformate (IPCF) from Acros Organics, trifluoroacetic acid (TFA) from Oakwood Chemicals and methanesulfonic acid, diethyl chlorophosphate and zinc dust were obtained from Aldrich Chemical Company. Dry solvents were obtained from VWR and Aldrich. Fluorinated resorcinols were synthesized according to a literature procedure.^18 All of the chemicals were used as received, except zinc, which was activated prior to use by washing with 20% HCl, followed by water and acetone.
^1H, ^13C, and ^31P NMR spectra were recorded on Bruker AC 250, Bruker AC 360 and Varian 400 MHz instruments. Peptides were purified on a Varian ProStar 210 HPLC system using a preparative-scale C18 reverse-phase column. Mass spectrometric characterization was carried out using an Applied Biosystems Voyager-DE STR MALDI-TOF instrument with α-cyanohydroxycinnamic acid as the matrix. Enzyme assays with fluorogenic substrates were performed on a Molecular Devices Analyst AD multimode plate reader in fluorescence mode with an excitation filter, emission filter and dichroic mirror at 360 nm, 425 nm, and 400 nm, respectively. Enzymatic hydrolysis of the phosphotyrosine-containing peptide DADE-phpsphotyrosine-GPAA (9a) was followed by observing an increase in absorbance at 280 nm using a Varian Cary50 spectrophotometer.
Standard conditions employed to determine the kinetic constants of each substrate with YOP and TCPTP are described below. Substrates were dissolved in DMSO and diluted to the appropriate concentration in DMSO. Aliquots were taken such that each reaction had the same amount of DMSO, which never exceeded 5% of the reaction volume (usually 200 μL). The buffer used for all studies contained 50 mM HEPES, pH 7.1, 100 mM NaCl, 2 mM EDTA, 0.01% Brij 35, 1 mM dithiothreitol (DTT). Prior to each reaction, the enzyme was incubated in buffer with freshly added DTT for 10 min on ice. […] The increase in signal (absorbance or fluorescence) due to substrate hydrolysis was measured every 60 s for 30 min. […] Standard curves were prepared using authentic samples of the appropriate product, relative fluorescence or absorbance units were converted into concentration of product formed, and the resulting data was fit to the Michaelis-Menten equation, providing kinetic parameters for each substrate.

[2] = molecular target: protein tyrosine kinase Csk (Homo sapiens, UniProt P41240); experiment: Kinase assay: MU as substrate for Csk; conditions: fluorescence decrease, ATP, pH 6.8
Procedure: Currently kinases assays are done using radioactive ATP. We envision that a highly sensitive fluorescence based assay would be more convenient. MU, an analog of CAP, was tested as a substrate for the protein tyrosine kinase Csk, to check the viability of the idea (FIG. 8). […] In addition, the fluorinated derivatives also serve as sensitive fluorescent assays for PTK activity.
Stock solutions of MU were prepared in DMSO to make 1 and 10 mM solutions. For enzymatic assays, various aliquots of each substrate and DMSO (to a total of 5 μL) were placed on a 96 well plate, incubated with 75 μL buffer (30 mM HEPES, 5 mM MgCl2, 0.01% Brij 35, pH 6.8) for 5 mins, treated with 1 μL of 10 mM ATP, followed by 20 μL of 12.8 nM Csk. The decrease in signal (fluorescence) due to substrate phosphorylation was measured every 60 s for 30 min. Each reaction was run in triplicate and the results averaged. Standard curves were prepared using authentic samples of the appropriate substrate, relative fluorescence units were converted into concentration of substrate left unreacted, and the resulting data was fit to the Michaelis-Menten equation, providing kinetic parameters for each substrate.

human T-cell PTP (TCPTP) = molecular target: T2, human T-cell PTP (TCPTP) (Homo sapiens, UniProt P17706); experiment: Enzyme activity assay: PTP-catalyzed hydrolysis of substrates by TCPTP; conditions: pH 7.1, 30° C.
T2 construct: purchased Calbiochem
T2 sequence (P17706 1-415): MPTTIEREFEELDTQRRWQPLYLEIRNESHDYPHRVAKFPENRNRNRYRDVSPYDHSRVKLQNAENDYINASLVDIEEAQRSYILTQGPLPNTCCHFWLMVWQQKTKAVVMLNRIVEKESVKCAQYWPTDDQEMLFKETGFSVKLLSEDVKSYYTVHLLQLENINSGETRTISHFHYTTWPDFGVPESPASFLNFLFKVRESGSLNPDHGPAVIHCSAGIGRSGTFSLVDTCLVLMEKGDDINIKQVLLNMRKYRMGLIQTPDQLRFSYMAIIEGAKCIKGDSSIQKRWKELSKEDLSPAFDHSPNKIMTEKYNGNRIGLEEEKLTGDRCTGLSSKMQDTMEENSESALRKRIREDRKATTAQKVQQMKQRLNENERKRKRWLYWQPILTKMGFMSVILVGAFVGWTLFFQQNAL
Source text: as §1, with “Fluorinated resorcinols were synthesized according to a literature procedure.^18 All of the chemicals were used as received, except zinc, which was activated prior to use by washing with 20% HCl, followed by water and acetone.” left out
^1H, ^13C, and ^31P NMR spectra were recorded on Bruker AC 250, Bruker AC 360 and Varian 400 MHz instruments. […] Enzyme assays with fluorogenic substrates were performed on a Molecular Devices Analyst AD multimode plate reader in fluorescence mode with an excitation filter, emission filter and dichroic mirror at 360 nm, 425 nm, and 400 nm, respectively. Enzymatic hydrolysis of the phosphotyrosine-containing peptide DADE-phpsphotyrosine-GPAA (9a) was followed by observing an increase in absorbance at 280 nm using a Varian Cary50 spectrophotometer. […]

T1 sequence (P15273 whole entry): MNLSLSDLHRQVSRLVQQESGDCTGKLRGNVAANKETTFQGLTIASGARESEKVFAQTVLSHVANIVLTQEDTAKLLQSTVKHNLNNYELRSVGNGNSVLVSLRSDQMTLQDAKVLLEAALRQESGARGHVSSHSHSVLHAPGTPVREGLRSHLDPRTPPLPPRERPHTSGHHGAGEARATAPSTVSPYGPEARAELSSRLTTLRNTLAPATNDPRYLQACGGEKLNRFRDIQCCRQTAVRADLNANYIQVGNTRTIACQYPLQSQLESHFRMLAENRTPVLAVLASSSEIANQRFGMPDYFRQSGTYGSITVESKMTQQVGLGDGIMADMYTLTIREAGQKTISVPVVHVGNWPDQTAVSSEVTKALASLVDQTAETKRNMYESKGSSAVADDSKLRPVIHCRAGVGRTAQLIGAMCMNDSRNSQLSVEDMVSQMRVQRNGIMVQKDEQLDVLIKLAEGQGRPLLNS
Sequence of protein tyrosine kinase Csk (P41240 whole entry): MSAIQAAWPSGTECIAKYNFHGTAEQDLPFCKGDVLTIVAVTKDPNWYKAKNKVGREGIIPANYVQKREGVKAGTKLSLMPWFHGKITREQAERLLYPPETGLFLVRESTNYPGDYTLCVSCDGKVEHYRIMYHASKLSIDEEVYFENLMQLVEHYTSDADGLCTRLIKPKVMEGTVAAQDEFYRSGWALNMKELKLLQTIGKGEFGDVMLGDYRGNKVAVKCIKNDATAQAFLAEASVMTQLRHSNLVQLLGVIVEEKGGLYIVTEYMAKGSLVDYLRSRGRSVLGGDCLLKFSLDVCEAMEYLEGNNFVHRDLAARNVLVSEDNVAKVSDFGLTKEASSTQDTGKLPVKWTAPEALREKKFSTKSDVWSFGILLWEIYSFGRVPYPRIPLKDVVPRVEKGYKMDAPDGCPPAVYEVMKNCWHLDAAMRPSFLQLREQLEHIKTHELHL

Row | Compound | kcat (best fit to the Michaelis-Menten equation) [1] [s⁻¹] | Km [1] [µM] | phosphorylation of substrate by Csk [2] | kcat (best fit to the Michaelis-Menten equation) (human T-cell PTP (TCPTP)) [s⁻¹] | Km (human T-cell PTP (TCPTP); read-out: Km (best fit to the Michaelis-Menten equation)) [µM]
1 | C[C@H](NC(=O)[C@H](C)NC(=O)[C@@H]1CCCN1C(=O)CNC(=O)[C@H](Cc1ccc(OP(=O)(O)O)cc1)NC(=O)[C@H](CCC(=O)O)NC(=O)[C@H](CC(=O)O)NC(=O)[C@H](C)NC(=O)[C@@H](N)CC(=O)O)C(N)=O [9a, DADE-pY-GPAA-NH2] (H-DADE[pY]GPAA-NH2) | 100 ± 20 | 2700 ± 800 |  |  | 
2 | Cc1cc(=O)oc2cc(O)ccc12 [MU, 4-methylumbelliferone] |  |  | Csk indeed phosphorylated MU to MUP |  | 
3 | Cc1cc(=O)oc2cc(OP(=O)(O)O)ccc12 [MUP] | 5.7 ± 0.5 | 800 ± 200 |  |  | 
4 | DADE-pCAP-GPAA-NH2 [10a] |  |  |  | 35 ± 10 | 800 ± 300
